Measurements taken from patent US20120009164A1, “Increasing Probiotic Growth Rate and Activity Using Prebiotic Composition” (MASTER SUPPLEMENTS, INC., priority 2010, published 2012).

Experiments:
[1] = test system: L. acidophilus NCFM (LA-1); experiment: Growth (turbidity) and lactic acid producing activity in MRS broth, L. acidophilus NCFM; type: cell-based, Lactobacillus acidophilus
Procedure: Prebiotic formulations are often probiotic strain dependent. […] At specified time intervals, a 30 ml sample from each flask was aseptically transferred into a HACH […] Turbidimeter sample cell. The turbidity of each sample was read and the results were reported in NTU's. The same 30 ml sample used for the turbidity reading was transferred into a 250 ml glass beaker, and the pH was recorded. The sample was titrated using 0.1N NaOH to an endpoint of pH 6.8, and the quantity of NaOH used was recorded. The % Lactic Acid was calculated using the following formula: % Lactic Acid=((mls of 0.1N NaOH)×(0.1N)×(90 gm/mole)×(1 L/1000 ml))×100 mls of sample % Lactic Acid=(mls of 0.1N NaOH)×(0.9) (Results reported at 12 hours and 23 hours like: 12/23 in Table I below)

[2] = test system: Lactobacillus paracasei Lpc-37 (F-19); experiment: Growth (turbidity) and lactic acid producing activity in MRS broth, L. paracasei Lpc-37; type: cell-based; settings: for Lactic Acid % / NTU (Turbidity) / pH: additive 0.1% in MRS (polysorbate 80 control: 1.0 g per liter)
Procedure: (§1) Prebiotic formulations are often probiotic strain dependent. Some Lactobacillus strains, for example, respond best to a form of lecithin derived from sunflowers (Sunflower Lecithin) while others show no preference to lecithin type and respond equally well to soy lecithin. Other strains show a synergistic response when lecithin is used together with oleic acid. […] Each flask was tempered to 37° C. and aseptically inoculated with 0.14 gm of the individual probiotic strains (in Examples 5 to 10 below) to be tested. At specified time intervals, a 30 ml sample from each flask was aseptically transferred into a HACH […] Turbidimeter sample cell. The turbidity of each sample was read and the results were reported in NTU's. The same 30 ml sample used for the turbidity reading was transferred into a 250 ml glass beaker, and the pH was recorded. The sample was titrated using 0.1N NaOH to an endpoint of pH 6.8, and the quantity of NaOH used was recorded. The % Lactic Acid was calculated using the following formula: % Lactic Acid=((mls of 0.1N NaOH)×(0.1N)×(90 gm/mole)×(1 L/1000 ml))×100 mls of sample % Lactic Acid=(mls of 0.1N NaOH)×(0.9) (Results reported at 12 hours and 23 hours like: 12/23 in Table III below)

[3] = test system: Lactobacillus rhamnosus Lr-32 (LR-44); experiment: Growth (turbidity) and lactic acid producing activity in MRS broth, L. rhamnosus Lr-32; type: cell-based; settings: for Lactic Acid % / NTU (Turbidity) / pH: additive 0.1% in MRS (polysorbate 80 control: 1.0 g per liter)
Procedure: as §1, with “IV” for “III”

[4] = test system: Lactobacillus salivarius Ls-33 (LS-30); experiment: Growth (turbidity) and lactic acid producing activity in MRS broth, L. salivarius Ls-33; type: cell-based; settings: for Lactic Acid % / NTU (Turbidity) / pH: additive 0.1% in MRS (polysorbate 80 control: 1.0 g per liter)
Procedure: as §1, with “V” for “III”

[5] = test system: THERALAC® Lot # 32310A probiotic strains; experiment: Growth of the commercial probiotic Theralac in MRS broth (Example 10); type: cell-based, Lactobacillus and Bifidobacterium strains; settings: for Lactic Acid % / pH / NTU (Turbidity): additive 0.1% in MRS (polysorbate 80 control: 1.0 g per liter); for NTU (Turbidity): inoculated at 0.1% with THERALAC
Procedure: MRS broth was prepared with (for controls) and without (for tests) polysorbate 80 and filled into 1 liter screw cap flasks at 500 ml each and autoclaved at 121° C. for 30 minutes. Various lecithin and/or oleic acid additives, or nothing (negative control), was added to the tests flasks prior to autoclaving. The flasks were then tempered to 37° C. in a water bath and inoculated at 0.1% with […]® Lot # 32310A, a commercial probiotic product (Master Supplements, Inc., Victoria, Minn.). Capsules of […]® were opened and the contents mixed aseptically to serve as the inoculum source. At an inoculation rate of 0.1%, approximately 80 million CFU was added per ml of MRS media. […]® contains (formulation strength) the following probiotic strains at the approximate CFU values listed per gram: Lactobacillus acidophilus NCFM (LA-1): 30 billion CFU Bifidobacterium lactis Bl-04 (BL-34): 30 billion CFU Lactobacillus paracasei Lpc-37 (F-19): 14 billion CFU Lactobacillus rhamnosus Lr-32 (LR-44): 6 billion CFU Bifidobacterium lactis Bi-07: 8 billion CFU Turbidity, pH and titrations (made with 0.1 N NaOH and reported as % lactic acid) were made at various times up to 23 hours. The results are presented below in Table VI for the 12 and 23-hour analyses.

[6] = test system: Bifidobacterium lactis Bl-04 (BL-34); experiment: Growth (turbidity) and lactic acid producing activity in MRS broth, B. lactis Bl-04; type: cell-based; settings: additive 0.1% in MRS (polysorbate 80 control: 1.0 g per liter)
Procedure: as §1, with “II” for “III”

[7] = additive 0.025% in MRS, 12 hours
[8] = additive 0.025% in MRS, 23 hours
[9] = additive 0.1% in MRS (polysorbate 80 control: 1.0 g per liter), 37° C., 12 hours
[10] = additive 0.1% in MRS (polysorbate 80 control: 1.0 g per liter), 37° C., 23 hours
[11] = additive 0.1% in MRS (polysorbate 80 control: 1.0 g per liter), 12 hours
[12] = additive 0.1% in MRS (polysorbate 80 control: 1.0 g per liter), 23 hours
[13] = at the concentrations studied (0.1% + 0.1%)

Q: How did the “effectiveness as polysorbate 80 replacement (conclusion)” value (from here on “effectiveness”) ([1]; 0.1% inclusion rate in MRS) turn out when CCCCCCCC/C=C\CCCCCCCC(=O)O [Oleic Acid, oleic acid] was run?
A: The value was “somewhat effective”.

Q: And the “Lactic Acid %” value [1, 7]?
A: Its value is 0.70%.

Q: And the pH [1, 7]?
A: Its pH is 4.5.

Q: And the “Lactic Acid %” value [1, 8]?
A: The value was 0.77%.

Q: And the “NTU (Turbidity)” value [1, 8]?
A: The value was 603 NTU.

Q: And the pH [1, 8]?
A: The pH was 4.4.

Q: What about the “NTU (Turbidity)” value [1, 9] of the same compound?
A: The value was 1451 NTU.

Q: And the “NTU (Turbidity)” value [1, 10]?
A: The value was 1789 NTU.

Q: What about the “Lactic Acid %” value [1, 11] of the same compound?
A: The value was 1.03%.

Q: And the pH [1, 11]?
A: Its pH is 4.3.

Q: And the “Lactic Acid %” value [1, 12]?
A: The value was 1.21%.

Q: What about the pH [1, 12] of the same compound?
A: The pH was 4.1.

Q: And the “effectiveness” value ([2]; 0.1% inclusion rate in MRS)?
A: Its value is “not as effective a replacement for polysorbate 80 as sunflower lecithin”.

Q: What about the “Lactic Acid %” value ([2]; 12 hours) of the same compound?
A: Its value is 0.33%.

Q: What about the “NTU (Turbidity)” value ([2]; 12 hours) of the same compound?
A: The value was 178 NTU.

Q: And the pH ([2]; 12 hours)?
A: Its pH is 5.1.

Q: And the “Lactic Acid %” value ([2]; 23 hours)?
A: Its value is 1.01%.

Q: And the “NTU (Turbidity)” value ([2]; 23 hours)?
A: The value was 1789 NTU.

Q: What about the pH ([2]; 23 hours) of the same compound?
A: The pH was 4.1.

Q: And the “synergy of oleic acid with sunflower lecithin (conclusion)” value [2, 13]?
A: Its value is “does not appear to be synergistic”.

Q: What about the lag phase ([3]; 0.1% in MRS, at 12 hours) of the same compound?
A: The lag phase was “significant lag phase”.

Q: What about the “effectiveness” value ([3]; 0.1% inclusion rate in MRS) of the same compound?
A: The value was “not as good a replacement for polysorbate 80 as sunflower lecithin”.

Q: And the “Lactic Acid %” value ([3]; 12 hours)?
A: Its value is 0.072%.

Q: And the “NTU (Turbidity)” value ([3]; 12 hours)?
A: The value was −30.9 NTU.

Q: And the pH ([3]; 12 hours)?
A: The pH was 6.2.

Q: And the “Lactic Acid %” value ([3]; 23 hours)?
A: Its value is 1.05%.

Q: What about the “NTU (Turbidity)” value ([3]; 23 hours) of the same compound?
A: Its value is 2644 NTU.

Q: And the pH ([3]; 23 hours)?
A: The pH was 4.1.

Q: And the “synergy of oleic acid with sunflower lecithin (conclusion)” value [3, 13]?
A: Its value is “not synergistic”.

Q: And the lag phase ([4]; 0.1% in MRS, at 12 hours)?
A: Its lag phase is “a lag phase is apparent”.

Q: What about the “effectiveness” value ([4]; 0.1% inclusion rate in MRS) of the same compound?
A: The value was “not as good a replacement”.

Q: What about the “Lactic Acid %” value ([4]; 12 hours) of the same compound?
A: Its value is 0.073%.

Q: What about the “NTU (Turbidity)” value ([4]; 12 hours) of the same compound?
A: Its value is 1440 NTU.

Q: What about the pH ([4]; 12 hours) of the same compound?
A: The pH was 4.4.

Q: And the “Lactic Acid %” value ([4]; 23 hours)?
A: Its value is 1.51%.

Q: What about the “NTU (Turbidity)” value ([4]; 23 hours) of the same compound?
A: The value was 3578 NTU.

Q: What about the pH ([4]; 23 hours) of the same compound?
A: The pH was 3.8.

Q: What about the “effectiveness” value ([5]; 0.1% inclusion rate in MRS) of the same compound?
A: The value was “acceptable replacement value”.

Q: What about the “Lactic Acid %” value ([5]; 12 hours) of the same compound?
A: Its value is 1.18%.

Q: And the pH ([5]; 12 hours)?
A: Its pH is 4.1.

Q: What about the “Lactic Acid %” value ([5]; 23 hours) of the same compound?
A: Its value is 1.72%.

Q: And the pH ([5]; 23 hours)?
A: The pH was 3.8.

Q: And the “NTU (Turbidity)” value ([5]; 12 hours)?
A: Its value is 2775 NTU.

Q: And the “NTU (Turbidity)” value ([5]; 23 hours)?
A: The value was 3529 NTU.

Q: What does the source list for polysorbate 80 [reference compound]?
A: NTU (Turbidity) [1, 9]: 1855 NTU; NTU (Turbidity) [1, 10]: 2038 NTU; Lactic Acid % [1, 11]: 1.09%; pH [1, 11]: 4.2; Lactic Acid % [1, 12]: 1.27%; pH [1, 12]: 4.1; Lactic Acid % ([6]; 12 hours): 0.57%; NTU (Turbidity) ([6]; 12 hours): 922 NTU; pH ([6]; 12 hours): 4.8; Lactic Acid % ([6]; 23 hours): 0.84%; NTU (Turbidity) ([6]; 23 hours): 1434 NTU; pH ([6]; 23 hours): 4.5; Lactic Acid % ([2]; 12 hours): 0.99%; NTU (Turbidity) ([2]; 12 hours): 1664 NTU; pH ([2]; 12 hours): 4.2; Lactic Acid % ([2]; 23 hours): 1.39%; NTU (Turbidity) ([2]; 23 hours): 2824 NTU; pH ([2]; 23 hours): 3.9; Lactic Acid % ([3]; 12 hours): 1.12%; NTU (Turbidity) ([3]; 12 hours): 2804 NTU; pH ([3]; 12 hours): 4.0; Lactic Acid % ([3]; 23 hours): 1.67%; NTU (Turbidity) ([3]; 23 hours): 3776 NTU; pH ([3]; 23 hours): 3.7; Lactic Acid % ([4]; 12 hours): 1.42%; NTU (Turbidity) ([4]; 12 hours): 3426 NTU; pH ([4]; 12 hours): 3.8; Lactic Acid % ([4]; 23 hours): 1.68%; NTU (Turbidity) ([4]; 23 hours): 3931 NTU; pH ([4]; 23 hours): 3.7; Lactic Acid % ([5]; 12 hours): 1.42%; pH ([5]; 12 hours): 3.9; Lactic Acid % ([5]; 23 hours): 1.84%; pH ([5]; 23 hours): 3.7; NTU (Turbidity) ([5]; 12 hours): 3311 NTU; NTU (Turbidity) ([5]; 23 hours): 3694 NTU
